# In US9023844B2, “Heterocyclylpyri (mi) dinylpyrazole as fungicidals” (Bayer Intellectual Property GmbH, priority 2011, dated 2015):
# Columns and labels:
# [1] = test system: Septoria tritici; settings: in vivo
# [2] = test system: Pyricularia oryzae; format: in vivo; settings: in vivo
# [3] = test system: DON/Acetyl-DON production by Fusarium graminearum; assay: microbe, parasite or virus in culture; format: cell-based; settings: at 50 μM
# [4] = test system: Puccinia recondita; settings: in vivo
# [5] = test system: Fusarium graminearum; assay: microbe, parasite or virus in culture; format: cell-based; settings: at 50 μM
# [6] = Determination of log P values by HPLC on a reverse phase column (C18), EEC-Directive 79/831 Annex V.A8 (Methods A, B, C); format: physicochemical
# Procedure, shortened: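 Three C18 chromatographic methods following EEC-Directive 79/831 Annex V.A8 gave the logP values. Method C (UPLC, 2.1 mm column) ran at 40 °C and 0.8 mL/min with a 3.25 min 10–95% acetonitrile gradient. Methods A and B both ran at 55 °C and 2.0 mL/min, with gradients of 10–95% in 4.25 min and 5–95% in 1.70 min.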
# [7] = test system: Sphaerotheca fuliginea; settings: in vivo
# [8] = test system: Botrytis cinerea; assay: Example N: in vivo preventive test on Botrytis cinerea (grey mould); settings: dose of 500 ppm; gherkin plants; grading 4-5 days after contamination
# Experimental: The active ingredients tested are prepared by homogenization in a mixture of acetone/tween/DMSO and then diluted with water to obtain the desired active material.
# Gherkin plants (“Vert petit de Paris” variety), sown in starter cups on a 50/50 peat soil-pozzolana substrate and grown at 24° C., are treated at the Z11 cotyledon stage by spraying with the active ingredient prepared as described above. Plants, used as controls, are treated with the mixture of acetone/tween/DMSO/water not containing the active material.
# After 24 hours, the plants are contaminated by spraying the cotyledons with an aqueous suspension of cryopreserved Botrytis cinerea spores (50 000 spores per ml). The spores are suspended in a nutrient solution composed of 10 g/L of PDB, 50 g/L of D-Fructose, 2 g/L of NH4NO3 and 1 g/L of KH2PO4. The contaminated gherkin plants are incubated at 17° C. and at 80% relative humidity.
# Grading (% of efficacy) is carried out 4-5 days after the contamination, in comparison with the control plants.
# [9] = test system: Pyrenophora teres; settings: in vivo
# [10] = test system: Phytophthora infestans; settings: in vivo
# [11] = test system: Uromyces appendiculatus; settings: in vivo
# [12] = test system: Alternaria brassicae; settings: in vivo
# [13] = test system: Plasmopara viticola; assay: Example H: Plasmopara test (grapevines) / preventive; format: in vivo; settings: in vivo
# [14] = test system: Venturia inaequalis; assay: Example I: Venturia test (apples) / preventive; settings: 100 ppm of active ingredient, preventive spray, evaluated 10 days after inoculation
# Experimental: After the spray coating has dried on, the plants are inoculated with an aqueous conidia suspension of the causal agent of apple scab (Venturia inaequalis) and then remain for 1 day in an incubation cabinet at approximately 20° C. and a relative atmospheric humidity of 100%.
# The plants are then placed in a greenhouse at approximately 21° C. and a relative atmospheric humidity of approximately 90%.
# The test is evaluated 10 days after the inoculation.
# [15] = test system: Phytophthora infestans; format: in vivo; settings: in vivo
# [16] = Method B (HPLC, reverse phase C18)
# [17] = Method A: HPLC, reverse phase C18, acetonitrile (0.1% formic acid)/water (0.09% formic acid) gradient
SMILES,protection (% of efficacy) [1],protection (% of efficacy) [2],Inhibition of DON/AcDON in % [3],protection (% of efficacy) [4],Growth inhibition of Fusarium graminearum in % [5],"LogP [6, 16]",protection (% of efficacy) [7],protection (% of efficacy) [8],protection (% of efficacy) [9],protection (% of efficacy) [10],protection (% of efficacy) [11],"LogP [6, 17]",protection (% of efficacy) [12],efficacy [13],efficacy [14],efficacy [15]
O=C(Nc1cc(-c2c(-c3ccc(F)cc3)nn3c2OCCC3)ccn1)C1CC2CCC1C2 (stereo not drawn) [Example 64],86%,80%,98%,81%,83%,3.11,100%,100%,–,–,–,–,–,–,–,–
O=C(Nc1cc(-c2c(-c3ccc(F)cc3)nn3c2OCCC3)ccn1)C1C2CCCCC21 (stereo not drawn) [Example 65],–,80%,–,–,–,2.13,–,–,71%,–,–,–,–,–,–,–
O=C(CN1CCCCC1)Nc1cc(-c2c(-c3ccc(F)cc3)nn3c2OCCC3)ccn1 [Example 66],79%,80%,–,81%,–,1,94%,–,–,–,–,–,–,–,–,–
C[S+]([O-])C(C)(C)C(=O)Nc1cc(-c2c(-c3ccc(F)cc3)nn3c2OCCC3)ccn1 (stereo not drawn) [Example 68],93%,80%,–,81%,–,1.69,89%,80%,–,–,–,–,–,–,–,–
O=C(Nc1cc(-c2c(-c3ccc(F)cc3)nn3c2OCCC3)ccn1)C1SCCS1 [Example 69],–,100%,96%,81%,83%,2.1,100%,100%,79%,–,–,–,–,–,–,–
CCC(=O)Nc1cc(-c2c(-c3ccc(F)cc3)nn3c2O[C@H](C)C[C@H]3C)ccn1 [Example 72],75%,80%,100%,98%,77%,–,100%,–,94%,75%,96%,1.84,–,–,–,–
CCC(=O)Nc1cc(-c2c(-c3ccc(F)cc3)nn3c2O[C@H](C)C[C@@H]3C)ccn1 [Example 73],–,90%,100%,88%,83%,–,100%,–,94%,85%,86%,1.74,–,–,–,–
CCC(=O)Nc1cc(-c2c(-c3ccc(F)cc3)nn3c2OCC(F)(F)C3)ccn1 [Example 74],–,80%,–,88%,–,–,94%,–,81%,79%,–,1.9,–,–,–,–
CCC(=O)Nc1cc(-c2c(-c3ccc(F)cc3)nn3c2OC(C)C3C)ccn1 (stereo not drawn) [Example 75],–,90%,100%,88%,88%,–,100%,–,98%,95%,100%,1.67,–,–,–,–
CCC(=O)Nc1cc(-c2c(-c3ccc(F)cc3)nn3c(C)coc23)ccn1 [Example 103],–,–,–,–,–,–,–,80%,–,–,–,1.86,93%,–,–,–
CCC(=O)Nc1cc(-c2c(-c3ccc(F)cc3)nn3c(CC)coc23)ccn1 [Example 104],–,75%,–,–,–,–,–,85%,–,–,88%,2.23,79%,95%,93%,93%
CCC(=O)Nc1cc(-c2c(-c3ccc(F)cc3)nn3ccoc23)ccn1 [Example 105],–,–,99%,75%,83%,–,–,100%,81%,–,96%,1.61,93%,100%,93%,95%
CCC(=O)Nc1cc(-c2c(-c3ccccc3)nn3ccoc23)ccn1 [Example 106],–,–,95%,–,65%,–,98%,100%,–,–,81%,1.46,79%,–,–,–
